The text below walks through data of patent publication EP4559461A1, “DUAL NLRP1 AND NLRP3 INHIBITORS FOR USE AS A MEDICAMENT” (Servicio Andaluz de Salud, priority 2023, dated 2025).

One data set concerns NLRP3 inflammasome. Briefly: cytokines released into the culture medium after LPS+ATP activation (ELISA). Type of data set: cell-based. To be noted: for IL-1β cytokine release: in vitro treatment, Figure 9; for IC50: estimated inhibitory capacity. As to the method: (§1) For biological assays, the THP-1 cell line (monocytes) was used and differentiated into macrophages using phorbol-12-myristate-13-acetate (PMA). They were then stimulated with 200 ng/mL ultrapure LPS for 4 hours, minus the negative control condition, to activate NLRP3 expression. At the same time, the necessary volume of the starting stock of each compound to be tested was added to reach the test concentration. After 4 h incubation at 37 °C, 5 mM ATP was added […] and incubated for 30 min to activate NLRP3 assembly. For NLRP1 activation, Valboropro, a specific inducer of this protein was used at 1µM for 24 hours. Protein expression levels were studied by western blot as a proteomic study and inflammation levels by determination of cytokines released into the medium by immunoassay techniques (ELISA).

The target in another data set is T1, NLRP3 (Homo sapiens, UniProt Q96P20).
T1 construct: the THP-1 cell line (monocytes) was used and differentiated into macrophages; endogenous in cells; host or cells: THP-1 monocytes differentiated into macrophages with PMA
T1 sequence (Q96P20 whole entry): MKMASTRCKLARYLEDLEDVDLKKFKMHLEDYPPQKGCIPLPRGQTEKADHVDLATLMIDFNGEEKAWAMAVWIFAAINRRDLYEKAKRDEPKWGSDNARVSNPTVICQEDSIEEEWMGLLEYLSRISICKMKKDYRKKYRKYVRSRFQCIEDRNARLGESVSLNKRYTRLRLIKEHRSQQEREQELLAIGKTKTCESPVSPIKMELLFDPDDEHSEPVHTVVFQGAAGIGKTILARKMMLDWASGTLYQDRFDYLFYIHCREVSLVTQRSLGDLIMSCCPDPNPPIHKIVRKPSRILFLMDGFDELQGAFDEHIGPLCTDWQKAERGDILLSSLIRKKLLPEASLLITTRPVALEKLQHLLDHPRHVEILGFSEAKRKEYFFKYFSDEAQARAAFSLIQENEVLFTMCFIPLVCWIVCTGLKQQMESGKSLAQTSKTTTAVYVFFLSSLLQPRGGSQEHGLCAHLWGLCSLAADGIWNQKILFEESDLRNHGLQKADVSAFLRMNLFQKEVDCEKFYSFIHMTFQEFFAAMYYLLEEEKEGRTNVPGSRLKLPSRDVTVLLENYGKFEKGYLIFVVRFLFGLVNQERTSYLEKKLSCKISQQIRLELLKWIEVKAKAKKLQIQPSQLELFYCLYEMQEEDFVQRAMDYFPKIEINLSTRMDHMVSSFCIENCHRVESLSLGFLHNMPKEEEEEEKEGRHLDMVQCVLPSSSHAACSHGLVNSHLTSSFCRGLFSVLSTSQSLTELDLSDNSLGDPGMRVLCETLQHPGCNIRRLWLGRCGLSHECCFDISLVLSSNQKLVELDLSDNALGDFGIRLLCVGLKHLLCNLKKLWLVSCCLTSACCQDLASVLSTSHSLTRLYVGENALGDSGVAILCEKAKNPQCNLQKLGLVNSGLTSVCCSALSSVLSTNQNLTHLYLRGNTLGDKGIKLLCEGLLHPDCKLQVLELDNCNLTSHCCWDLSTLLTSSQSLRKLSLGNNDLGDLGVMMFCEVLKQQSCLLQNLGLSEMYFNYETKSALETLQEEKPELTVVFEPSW
Briefly: in vitro model of NLRP3 induction (LPS + ATP) in PMA-differentiated THP-1 macrophages, protein expression by western blot. The format is cell-based. As to the method:
as §1
(§2) The inventors of the present invention evaluated the inhibitory effects of compound C3 in an in vitro model of NLRP3 induction (LPS + ATP), and in an […] model of NLRP1 induction (ValboroPro or Vbp).
Background: In western blotting, separated proteins are transferred to a membrane and probed.

For the next data set, the target named is T2, NLRP1 (Homo sapiens, UniProt Q9C000).
T2 construct: the THP-1 cell line (monocytes) was used and differentiated into macrophages; endogenous in cells; host or cells: THP-1 monocytes differentiated into macrophages with PMA
T2 sequence (Q9C000 1-1473): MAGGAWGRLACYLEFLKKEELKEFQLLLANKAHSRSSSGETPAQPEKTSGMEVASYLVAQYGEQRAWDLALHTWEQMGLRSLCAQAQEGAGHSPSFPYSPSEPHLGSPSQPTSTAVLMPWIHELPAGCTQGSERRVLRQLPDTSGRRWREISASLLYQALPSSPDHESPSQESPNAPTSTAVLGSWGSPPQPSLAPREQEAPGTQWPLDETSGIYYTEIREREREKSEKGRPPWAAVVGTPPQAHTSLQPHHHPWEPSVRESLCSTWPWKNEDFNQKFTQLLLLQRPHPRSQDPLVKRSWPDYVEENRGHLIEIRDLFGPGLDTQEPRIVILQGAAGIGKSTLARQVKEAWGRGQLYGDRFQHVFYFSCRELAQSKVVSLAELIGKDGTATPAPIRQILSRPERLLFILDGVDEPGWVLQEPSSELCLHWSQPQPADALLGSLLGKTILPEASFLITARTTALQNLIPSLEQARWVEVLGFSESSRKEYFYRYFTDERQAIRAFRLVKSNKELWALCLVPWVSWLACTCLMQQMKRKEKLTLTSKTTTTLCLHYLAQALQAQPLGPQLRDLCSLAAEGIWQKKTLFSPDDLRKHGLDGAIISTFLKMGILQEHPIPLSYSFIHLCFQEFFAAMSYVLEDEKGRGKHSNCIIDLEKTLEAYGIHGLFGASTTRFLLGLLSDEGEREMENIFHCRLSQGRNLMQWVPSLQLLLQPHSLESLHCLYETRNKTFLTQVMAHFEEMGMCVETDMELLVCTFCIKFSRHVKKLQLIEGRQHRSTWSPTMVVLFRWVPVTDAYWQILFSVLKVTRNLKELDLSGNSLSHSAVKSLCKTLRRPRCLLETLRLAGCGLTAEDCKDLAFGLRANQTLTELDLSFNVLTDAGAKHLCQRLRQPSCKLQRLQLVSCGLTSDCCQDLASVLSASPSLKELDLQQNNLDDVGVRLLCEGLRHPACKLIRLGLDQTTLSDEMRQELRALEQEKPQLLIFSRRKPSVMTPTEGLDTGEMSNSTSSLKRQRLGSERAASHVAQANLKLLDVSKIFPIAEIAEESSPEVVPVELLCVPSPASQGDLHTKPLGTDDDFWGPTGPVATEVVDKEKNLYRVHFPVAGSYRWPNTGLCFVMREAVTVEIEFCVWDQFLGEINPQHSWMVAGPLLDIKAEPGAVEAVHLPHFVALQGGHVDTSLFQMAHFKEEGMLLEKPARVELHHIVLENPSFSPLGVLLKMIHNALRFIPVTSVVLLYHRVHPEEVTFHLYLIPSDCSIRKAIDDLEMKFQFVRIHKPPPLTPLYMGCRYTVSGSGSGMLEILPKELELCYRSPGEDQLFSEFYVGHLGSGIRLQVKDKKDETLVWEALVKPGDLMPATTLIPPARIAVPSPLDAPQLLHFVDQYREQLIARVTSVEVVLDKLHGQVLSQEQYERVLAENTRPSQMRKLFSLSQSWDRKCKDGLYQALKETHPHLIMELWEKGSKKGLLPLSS
Nature of the data set: in vitro model of NLRP1 induction (ValboroPro) in THP-1 macrophages, protein expression by western blot. To be noted: ValboroPro (Vbp) induction; dose-dependent; Figure 3. Type of data set: cell-based. As to the method: as §1, §2

Data set [1] concerns AIM-2, NLRP2, NLRC3 or NLRC4. Nature of the data set: expression of other inflammasome proteins (western blot, Figure 5). The format is cell-based. The method, then: as §1
This is reflected by the increased ability of C3 to inhibit the expression of NLRP1, NLRP3, IL-1β and IL-18 compared to MCC950 and C5 (Figure 5 and Figure 8).

The next data set concerns THP-1 cell line. Briefly: in vitro toxicity (cell viability). Type of data set: cell-based. To be noted: regardless of the dose tested; Figure 6.
The target in a further data set is T3, NEK7 to NLRP3 (Homo sapiens, UniProt Q96P20).
T3 construct: For biological assays, the THP-1 cell line (monocytes) was used; endogenous in cells
T3 sequence (Q96P20 whole entry): as the sequence (Q96P20 whole entry) above
Nature of the data set: NEK7 co-immunoprecipitation. The format is binding. To be noted: Figure 7. The text has this:
One of the possible mechanisms for NLRP3 inhibition is the inhibition of its binding to NEK7, since it has been shown that NEK7 interacts with NLRP3 to modulate NLRP3 inflammasome activation.

A short description of data set [2]: ageing mouse model (age-related metabolic dysfunction). Type of data set: in vivo, C57BL/6J mice. As to the method: (§3) For a better characterization of the effect of C3, the inventors determined its effect in two in vivo models: ageing mice (to evaluate the effect in age-related metabolic dysfunction), and ovarian aging mice (to evaluate the effect in infertility because of ovarian aging).
18-month-old C57BL/6J mice were treated with C3 (10 mg/Kg/day i.p.) or with a vehicle solution (saline) for over 4 weeks.

The nature of data set [3]: ovarian ageing mouse model. The format is in vivo, mice.
Excerpt: as §3
The second model used to evaluate the effect of C3 was related to ovarian aging. The reason behind this is that NLRP1 and NLRP3 is over-expressed during ovarian ageing (Figure 15).
For this, the inventors used 9-month-old adult mice to which C3 was administered for one month.

Setting [4] is: 18-month-old mice, 10 mg/Kg/day i.p., over 4 weeks, vs vehicle, Figure 10.
[5] abbreviates: ageing mice, 10 mg/Kg/day i.p., Figure 12.
The mark [6] stands for this setting: microscopic liver sections, Figure 12.
[7] abbreviates: old mice, 10 mg/Kg/day i.p., Figure 11.
[8] abbreviates: 9-month-old mice, administered for one month, Figure 13.
[9] abbreviates: histological staining, vs vehicle, Figure 14.

Where two headings read alike, the source gives them in different places.

As to `CS(=O)(=O)NCc1ccc(Cl)cc1` [Compound C4, N-(4-chlorobenzyl) methanesulfonamide], the IL-1β cytokine release result with NLRP3 inflammasome was “reduction”.
On the same count and under the same terms, the entry for `CS(=O)(=O)NCc1ccc2c(c1)OCO2` [Compound C2, N-(4,5-methylenedioxybenzyl) methanesulfonamide] is “reduction”.
Consider `CS(=O)(=O)NCc1cccc2ccccc12` [Compound C3, N-(naphthalen-1-ylmethyl) methanesulfonamide], for which, at NLRP3 (LPS + ATP induction, dose-dependent, Figure 3), the “expression of NLRP3” value is recorded as “inhibited the expression”. Besides, at NLRP3 (LPS+ATP or VbP induction, dose-dependent, Figure 3), the “expression of the inflammasome activation-associated protein IL-1β” value is on record as “reduced the expression”. The “inhibitory capacity (expression of NLRP1, NLRP3, IL-1β and IL-18)” value at NLRP3 (compared to MCC950 and C5, Figure 5 and Figure 8) was “increased inhibitory capacity”. At NLRP1, the “expression of NLRP1” value is listed as “inhibited the expression”. The IC50 – broadly, the concentration that gives 50% inhibition – in the data set with NLRP3 inflammasome (Figure 4A, read-out: IC50 (IL-1β) release into the culture medium) is 5.38 nM. For the same molecule, the IC50 with NLRP3 inflammasome (Figure 4B, read-out: IC50 (IL-18) release into the culture medium) is 4450 nM. In addition, in data set [1], the “modulation of other inflammasome proteins such as AIM-2, NLRP2, NLRC3 or NLRC4” value is recorded as “did not result in the modulation”. Further, the cell viability result in the data set with THP-1 cell line is given as “above 85%”. The “binding of NEK7 to NLRP3” value on NEK7 to NLRP3 is on record as “inhibited the binding”. Moreover, in data set [2] (setting [4]), the abdominal fat entry is recorded as “significantly reduced” and the body weight entry is “significantly reduced”. In addition, in data set [2] (setting [5]), the NLRP1 protein expression result is recorded as “significant reduction”, the NLRP3 protein expression entry is listed as “significant reduction” and the “serum IL1β levels” value is listed as “significant reduction”. Further, in data set [2] (setting [6]), the age-associated hepatic fibrosis entry is recorded as “significantly reduced” and the age-associated hepatic steatosis result is reported as “significantly reduced”. Besides, the “glucose levels upon glucose challenges at the OGTT peak (>15 min)” value in data set [2] (old mice, 10 mg/Kg/day i.p., vs control, Figure 11) was “significantly decreased”. Also, in data set [2] (setting [7]), the serum leptin/adiponectin result is “reduced”, the “serum levels of adiponectin” value is reported as “reduced” and the “serum levels of leptin” value is “reduced”. Moreover, in data set [3] (setting [8]), the AMH receptor entry is listed as “increase”, the “Follicle-stimulating hormone (FSH)” value was “reduction”, the “antimüllerian hormone (AMH)” value is “significant increase” and the “protein levels of active Caspase 1” value is listed as “decreased”. Moreover, in data set [3] (setting [8]), the “protein levels of active IL-1β” value was “decreased”. Moreover, the “improvement of the ovarian reserve by AMH hormone” value in data set [3] (compared to NLRP1 KO and NLRP3 KO mice, Figure 15) was “significantly higher improvement”. For the same molecule, in data set [3] (setting [9]), the “percentage of atretic follicles” value is recorded as “lower percentage” and the percentage of follicles result was “higher percentage”.
Consider `COc1ccc(CNS(C)(=O)=O)cc1` [Compound C1, N-(4-methoxybenzyl) methanesulfonamide], for which the IL-1β cytokine release result in the data set on NLRP3 inflammasome is “reduction”.
Same read-out and setting: the entry for `O=S(=O)(Cc1ccc2ccccc2c1)NCc1ccccc1` [Compound C7, N-benzyl-1-(naphthalen-2-yl) methanesulfonamide] is “reduction”.
